Counter-ions that a name gives are not always drawn. Like-named read-outs stand apart in the source and are kept apart here.
How the values were obtained:
human LPA1 receptor = biological target: T1, human LPA1 receptor (Homo sapiens, UniProt Q92633); assay: LPA1/SRE-luc reporter assay in RH7777 cells stably expressing human LPA1 receptor and SRE-Luc2; format: cell-based; settings: read-out: LPA1/SRE-luc EC50
T1 construct: expressed in transfected cells; host or cells: rat hepatocellular carcinoma cell line RH7777 (made 'similarly' to the LPA4 line)
T1 sequence (Q92633 whole entry): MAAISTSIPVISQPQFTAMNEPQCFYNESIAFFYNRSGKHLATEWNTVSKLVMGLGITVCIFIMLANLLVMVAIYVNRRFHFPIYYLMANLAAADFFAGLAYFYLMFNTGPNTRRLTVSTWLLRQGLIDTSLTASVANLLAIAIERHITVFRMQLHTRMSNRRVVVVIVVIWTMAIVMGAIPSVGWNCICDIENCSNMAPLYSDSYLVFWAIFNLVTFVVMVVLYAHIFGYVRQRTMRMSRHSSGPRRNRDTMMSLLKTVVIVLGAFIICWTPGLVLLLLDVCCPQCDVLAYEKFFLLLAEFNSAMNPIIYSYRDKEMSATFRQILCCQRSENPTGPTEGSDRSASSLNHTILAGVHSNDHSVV
Method: (§1) A stably expressing cell line that constantly expresses the human LPA4 receptor and SRE-Luc2 was established by the gene targeting introduction method of the rat hepatocellular carcinoma cell line RH7777 into rRosa26 site. Similarly, stably expressing cell lines for human LPA1 receptor and SRE-Luc2 were also established. Each cell line was seeded on a collagen-coated dish and maintained in culture, and cells were collected with trypsin EDTA and the required number (5×10^3 cells/well) was seeded on a 96-well plate. After culturing overnight at 37° C., LPA (Avanti Polar Lipids, Inc.) or each Example compound diluted with an assay medium added or not added with BSA was added, and the cells were cultured at 37° C. for 6 hr. Thereafter, a luciferase detection reagent (Bright-Glo, Promega) was added, and the chemiluminescence amount was quantified with an Envision (registered trade mark) multi-label counter (PerkinElmer) and used as an index of agonist activity.
(§2) The EC50 value of LPA or each Example compound was calculated using the […] Graph pad Prism for Windows ver.5.02 and ver.7.04. % Emax was expressed as the ratio of the maximum response (Emax) of LPA or each Example compound to the maximum response (Emax) of the positive control compound VPC 31144S (N-{(1S)-2-hydroxy-1-[(phosphonooxy)methyl]ethyl}(9Z) cctadec-9-enamide), with the Emax of the positive control compound VPC 31144S as 100%.

human LPA4 receptor = biological target: T2, human LPA4 receptor (Homo sapiens, UniProt Q99677); assay: LPA4/SRE-luc reporter assay in RH7777 cells stably expressing human LPA4 receptor and SRE-Luc2; format: cell-based; settings: for EC50: read-out: LPA4/SRE-luc EC50
T2 construct: expressed in transfected cells; host or cells: rat hepatocellular carcinoma cell line RH7777, targeted integration at the rRosa26 site
T2 sequence (Q99677 whole entry): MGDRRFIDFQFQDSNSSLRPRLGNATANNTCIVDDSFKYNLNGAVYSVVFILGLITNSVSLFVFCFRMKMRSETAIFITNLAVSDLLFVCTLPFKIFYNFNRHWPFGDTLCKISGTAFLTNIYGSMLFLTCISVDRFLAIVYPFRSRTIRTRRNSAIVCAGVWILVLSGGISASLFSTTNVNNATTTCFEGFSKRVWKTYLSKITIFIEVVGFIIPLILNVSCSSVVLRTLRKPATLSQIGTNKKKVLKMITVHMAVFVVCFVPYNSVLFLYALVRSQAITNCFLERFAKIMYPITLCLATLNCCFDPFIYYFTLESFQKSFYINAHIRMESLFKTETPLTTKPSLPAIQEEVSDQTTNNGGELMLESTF
Method: as §1, §2

[1] = RH7777, BSA not added, Emax of positive control VPC 31144S as 100%, read-out: LPA4/SRE-luc % Emax
[2] = RH7777, BSA added, Emax of positive control VPC 31144S as 100%, read-out: LPA4/SRE-luc % Emax

| Compound | EC50 (human LPA1 receptor; BSA not added) [nM] | EC50 (human LPA4 receptor; BSA not added) [nM] | Emax (human LPA4 receptor; [1]) [%] | Emax (human LPA4 receptor; RH7777, read-out: LPA4/SRE-luc % Emax) [%] | EC50 (human LPA1 receptor; BSA added) [nM] | EC50 (human LPA4 receptor; BSA added) [nM] | Emax (human LPA4 receptor; [2]) [%] |
| --- | --- | --- | --- | --- | --- | --- | --- |
| CCCCCCCCOc1ccc(CCCC(=O)N2CC(OP(=O)(O)O)C2)cc1 [Example 26, 1-{4-[4-(Octyloxy)phenyl]butanoyl}azetidin-3-yl dihydrogen phosphate] | > 10000 | 10 |  | 125 |  |  |  |
| CCc1ccc(CCCCCCCCC(=O)N2CC[C@@H](OP(=O)(O)O)C2)cc1 [Example 24, (3R)-1-[9-(4-Ethylphenyl)nonanoyl]pyrrolidin-3-yl dihydrogen phosphate ammonium salt] | > 10000 | 5.6 | 138 |  |  |  |  |
| O=C(CCCCCCCCc1ccc(C2CCCCC2)cc1)N1CC(OP(=O)(O)O)C1 [Example compound 93, 1-[9-(4-Cyclohexylphenyl)nonanoyl]azetidin-3-yl dihydrogen phosphate] |  |  |  |  | > 10000 | < 41 | 113 |
| CCCCCCc1ccc(CCCCC(=O)N2CC(OP(=O)(O)O)C2)cc1 [Example 7, 1-[5-(4-Hexylphenyl)pentanoyl]azetidin-3-yl dihydrogen phosphate] | > 10000 | 37 | 125 |  |  |  |  |
| CCCCCCCCCCOc1cccc(CCC(=O)N(CCCCOC)CCOP(=O)(O)O)c1 [Example compound 47, 2-[{3-[3-(Decyloxy)phenyl]propanoyl}(4-methoxybutyl)amino]ethyl dihydrogen phosphate ammonium salt] | > 10000 | 46 | 94 |  |  |  |  |
| CCCCCCCCCOc1ccc(CCC(=O)N2CC(OP(=O)(O)O)C2)cc1 [Example 1, 1-{3-[4-(Nonyloxy)phenyl]propanoyl}azetidin-3-yl dihydrogen phosphate ammonium salt] | > 10000 | 28 | 119 |  |  |  |  |
| CCCCCCCCc1cccc(CCCCCCCC(=O)N2CC(OP(=O)(O)O)C2)c1 [Example compound 43, 1-[8-(3-Octylphenyl)octanoyl]azetidin-3-yl dihydrogen phosphate ammonium salt] | > 10000 | 27 | 86 |  |  |  |  |
| O=C(CCCCc1cccc(OCCCCC2CCCCC2)c1)N1CC(OP(=O)(O)O)C1 [Example compound 88, 1-{5-[3-(4-Cyclohexylbutoxy)phenyl]pentanoyl}azetidinyl dihydrogen phosphate ammonium salt] |  |  |  |  | > 10000 | 20 | 152 |
| Cc1ccc(CCc2ccc(CCCC(=O)N3CC[C@@H](OP(=O)(O)O)C3)cc2)cc1 [Example 29, (3R)-1-(4-{4-[2-(4-Methylphenyl)ethyl]phenyl}butanoyl)pyrrolidin-3-yl dihydrogen phosphate ammonium salt] | > 10000 | 45 | 145 |  |  |  |  |

Now from value to compound, other results behind:

| EC50 (human LPA1 receptor; BSA not added) [nM] | EC50 (human LPA4 receptor; BSA not added) [nM] | Emax (human LPA4 receptor; [1]) [%] | Compound | Emax (human LPA4 receptor; RH7777, read-out: LPA4/SRE-luc % Emax) [%] | EC50 (human LPA1 receptor; BSA added) [nM] | EC50 (human LPA4 receptor; BSA added) [nM] | Emax (human LPA4 receptor; [2]) [%] |
| --- | --- | --- | --- | --- | --- | --- | --- |
| > 10000 | < 41 | 86 | CCCCCCCc1ccc(CCCCC(=O)N2CC(OP(=O)(O)O)C2)cc1 [Example compound 59, 1-[5-(4-Heptylphenyl)pentanoyl]azetidin-3-yl dihydrogen phosphate ammonium salt] |  |  |  |  |
| > 3000 | < 41 | 148 | CCCCCCCCCCOc1cccc(CCC(=O)N(CCOP(=O)(O)O)Cc2ccncc2)c1 [Example compound 58, 2-[{3-[3-(Decyloxy)phenyl]propanoyl}(pyridin-4-ylmethyl)amino]ethyl dihydrogen phosphate ammonium salt] |  |  |  |  |
| > 10000 | < 41 | 280 | CC(C)c1ccc(CCCCCCCCC(=O)N2CC(OP(=O)(O)O)C2)cc1 [Example compound 66, 1 {9-[4-(Propan-2-yl)phenyl]nonanoyl}azetidin-3-yl dihydrogen phosphate] |  |  |  |  |
| > 1000 | 23 | 79 | CCCCCCCCCCOc1cccc(CCC(=O)N(CCCCCO)CCOP(=O)(O)O)c1 [Example compound 50, 2-[{3-[3-(Decyloxy)phenyl]propanoyl}(5-hydroxypentyl)amino]ethyl dihydrogen phosphate ammonium salt] |  |  |  |  |

Reference: US11802135B2, “Lysophosphatidic acid derivative” (MITSUBISHI TANABE PHARMA CORPORATION, priority 2021, dated 2023)
